The text below walks through data of patent publication US20150045610A1, “METHOD OF MODIFYING SPERMATOGENESIS, SPERMIOGENESIS AND/OR FERTILITY IN MAMMALS” (Monell Chemical Senses Center, priority 2012, published 2015).

In brackets after ≈: the same amount, converted by molar mass.

One data set has as its system PDE 8. Particulars: read-out: IC50, PDE 8; cited from earlier work.
A further data set concerns PDE 1. Particulars: cited from earlier work.
The target of a further data set is T1, humanized mhT1R3 (Homo sapiens, UniProt Q7RTX0, A109T/A120V/A176D/A197V/A198V/A228S/A231N/A248T/A280V/A282S/A302S/A412V/A417V/A46T/A537T/C375D/D124S/D249S/D250G/D364H/D419E/D470T/D491G/D88A/DEL352-352/DEL488-489/E172D/E199T/E203N/E217D/E356N/E45S/E481Q/E505D/E525K/E545Q/F540P/F555L/G168S/G205S/G311T/G314N/G355L/G360D/G414H/G438R/G439D/G463S/G50T/G542N/H261R/H278R/H281Y/H332P/I485M/I536F/INS376MLQNLSSG/K32Q/K339E/K422L/K494V/K86G/L173R/L245Q/L272V/L29F/L354S/L385Q/L433M/L458M/L483S/L71F/L74M/M151L/M315I/M318V/M31A/N285S/N386L/N532H/N68L/P112S/P246H/P335S/P416H/P420H/P441T/P60I/Q221E/Q257L/Q317R/Q330L/Q336H/Q359L/Q372R/Q418S/Q504K/Q531K/R123Q/R247D/R252Q/R291G/R30K/R357A/R443Q/R467V/R473T/R479Q/R482Q/R486Y/R498Q/R52N/R550K/R553A/R556P/R560K/R56Q/S251Q/S267K/S289H/S290H/S392A/S446A/S447E/S464P/S477T/S490P/S53Q/S559P/S58N/S67P/T195Q/T346A/T377L/T390I/T434S/T480L/T63N/V152I/V277A/V366M/V36I/V381L/V393T/V437A/V465T/V61P/W72L).
T1 construct: the extracellular domain is of mouse origin and the transmembrane and intracellular domains of human origin; mouse T1R3 extracellular domain (fusion partner replacing the human extracellular domain); expressed in transfected cells; host or cells: transgenic Line 7c mice (T1R3-/-, Gus-/-, mhT1R3+/-)
T1 sequence (Q7RTX0 with tags, fused parts or gaps L29F/R30K/M31A/K32Q/V36I/E45S/A46T/G50T/R52N/S53Q/R56Q/S58N/P60I/V61P/T63N/S67P/N68L/L71F/W72L/L74M/K86G/D88A/A109T/P112S/A120V/R123Q/D124S/M151L/V152I/G168S/E172D/L173R/A176D/T195Q/A197V/A198V/E199T/E203N/G205S/E217D/Q221E/A228S/A231N/L245Q/P246H/R247D/A248T/D249S/D250G/S251Q/R252Q/Q257L/H261R/S267K/L272V/V277A/H278R/A280V/H281Y/A282S/N285S/S289H/S290H/R291G/A302S/G311T/G314N/M315I/Q317R/M318V/Q330L/H332P/P335S/Q336H/K339E/T346A/DEL352-352/L354S/G355L/E356N/R357A/Q359L/G360D/D364H/V366M/Q372R/C375D/INS376MLQNLSSG/T377L/V381L/L385Q/N386L/T390I/S392A/V393T/A412V/G414H/P416H/A417V/Q418S/D419E/P420H/K422L/L433M/T434S/V437A/G438R/G439D/P441T/R443Q/S446A/S447E/L458M/G463S/S464P/V465T/R467V/D470T/R473T/S477T/R479Q/T480L/E481Q/R482Q/L483S/I485M/R486Y/DEL488-489/S490P/D491G/K494V/R498Q/Q504K/E505D/E525K/Q531K/N532H/I536F/A537T/F540P/G542N/E545Q/R550K/R553A/F555L/R556P/S559P/R560K limits assumed): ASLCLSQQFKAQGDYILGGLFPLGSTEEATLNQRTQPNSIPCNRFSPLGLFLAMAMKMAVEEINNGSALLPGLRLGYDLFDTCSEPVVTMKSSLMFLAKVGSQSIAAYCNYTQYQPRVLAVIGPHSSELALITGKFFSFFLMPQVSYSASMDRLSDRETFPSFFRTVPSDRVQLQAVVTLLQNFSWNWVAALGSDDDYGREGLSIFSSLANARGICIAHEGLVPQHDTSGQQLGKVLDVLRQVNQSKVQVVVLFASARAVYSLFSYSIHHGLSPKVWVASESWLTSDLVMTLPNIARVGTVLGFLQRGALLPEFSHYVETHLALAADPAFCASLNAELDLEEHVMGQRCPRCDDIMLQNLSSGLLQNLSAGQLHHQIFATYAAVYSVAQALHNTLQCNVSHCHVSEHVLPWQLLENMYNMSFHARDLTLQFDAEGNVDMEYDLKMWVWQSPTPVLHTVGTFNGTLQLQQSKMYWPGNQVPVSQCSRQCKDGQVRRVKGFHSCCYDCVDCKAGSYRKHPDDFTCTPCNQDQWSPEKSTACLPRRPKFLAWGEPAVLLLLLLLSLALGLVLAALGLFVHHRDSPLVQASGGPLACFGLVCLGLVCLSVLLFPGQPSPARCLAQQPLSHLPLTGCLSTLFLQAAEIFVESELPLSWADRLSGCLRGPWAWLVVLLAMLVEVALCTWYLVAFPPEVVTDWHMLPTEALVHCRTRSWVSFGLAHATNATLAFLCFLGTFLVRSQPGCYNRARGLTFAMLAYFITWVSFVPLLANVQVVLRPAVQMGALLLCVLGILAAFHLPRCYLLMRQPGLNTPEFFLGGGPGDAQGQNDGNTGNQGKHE
As to the kind of experiment: T1R3 pharmacological block with clofibrate diet (male reproduction). The data set is classed as in vivo, mouse. Particulars: clofibrate diet 300 mg/kg body weight, line 7c and WT males. The protocol: Matched groups (six males each) of WT and line 7c mice (expressing the chimerical mhT1R3 transgene on a T1R3/α-gustducin double-null background), 3-6 months old, were fed the indicated diets for 4-6 weeks. Each genotype was tested in two groups, one on the regular diet and one on a test diet with clofibrate. An additional group of males stayed on the test diet for another 4-6 weeks, during which time they were mated with WT females to determine whether the pharmacological intervention was effective. Then the animals were allowed to recover on the regular diet for an additional 4 weeks after the end of the treatment (half-time for total sperm turnover in mice), and again were tested for their reproductive capacity, and then their tissues were analyzed. […]
We observed spermatozoa after clofibrate treatment represent cells that were able to escape the inhibition of clofibric acid, most likely due to very fast clearance and fluctuating levels in rodents. […] Therefore, we measured sperm concentration as an indicator of efficiency of the pharmacological block and to be able to determine the concentration that results in effective sterility. We analyzed testicular morphology, sperm production, sperm motility and sperm function in in vitro fertilization after feeding these animals with the lipid lowering drug clofibrate. […]

A further data set is described as follows: solubility. The data set is classed as physicochemical.
The test system of a further data set is PDE 4. Particulars: quantity not given; read-out: inhibition of PDE 4; cited from earlier work.

Take `OCCN(CCO)c1nc(N2CCCCC2)c2nc(N(CCO)CCO)nc(N3CCCCC3)c2n1` [Dipyridamole]: the IC50 in the data set on PDE 8 is 4 to 9 µM.

For `CCOC(=O)C1=C[C@]2(CC)CCCN3CCc4c(n1c1ccccc41)[C@@H]32` [Vinpocetine], in the data set with PDE 1, the IC50 is 10 µM.

As to `CCOC(=O)C(C)(C)Oc1ccc(Cl)cc1` [clofibrate], the “effect on the health of the animals” value at humanized mhT1R3 was “no apparent effect”. This compound also registered a solubility in “solubility” of 5000 µg/mL (≈ 20.6 mM).

`COc1ccc(C2CNC(=O)C2)cc1OC1CCCC1` (centres unmarked) [rolipram]: the IC50 with PDE 4 was […].

The solubility is the dissolved amount per volume that the medium holds.
